Assay results published in article PMC3371665 (Journal of Medicinal Chemistry, 2012).
Values belong to the compound of their own block, whether it stands above or below them.

Key:
mA1AR = target: T1, mA1AR (Mus musculus, UniProt Q60612); settings: read-out: Affinity (Ki) mA1; ref Melman et al.[21]; cited from earlier work
T1 sequence (Q60612 1-326): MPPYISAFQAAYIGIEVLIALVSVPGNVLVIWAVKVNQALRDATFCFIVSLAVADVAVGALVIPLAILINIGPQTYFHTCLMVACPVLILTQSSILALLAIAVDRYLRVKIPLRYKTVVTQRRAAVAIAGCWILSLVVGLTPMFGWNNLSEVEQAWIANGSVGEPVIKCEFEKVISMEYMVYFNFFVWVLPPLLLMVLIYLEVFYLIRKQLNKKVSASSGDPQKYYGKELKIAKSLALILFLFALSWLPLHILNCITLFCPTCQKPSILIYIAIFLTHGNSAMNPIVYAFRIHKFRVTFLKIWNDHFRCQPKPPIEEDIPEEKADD

mA2AAR = mA2AAR (Mus musculus, UniProt Q60613); settings: read-out: Affinity (Ki) mA2A; ref Melman et al.[21]; cited from earlier work
mA3AR = target: T2, mA3AR (Mus musculus, UniProt Q61618); settings: read-out: Affinity (Ki) mA3; ref Melman et al.[21]; cited from earlier work
T2 sequence (Q61618 1-319): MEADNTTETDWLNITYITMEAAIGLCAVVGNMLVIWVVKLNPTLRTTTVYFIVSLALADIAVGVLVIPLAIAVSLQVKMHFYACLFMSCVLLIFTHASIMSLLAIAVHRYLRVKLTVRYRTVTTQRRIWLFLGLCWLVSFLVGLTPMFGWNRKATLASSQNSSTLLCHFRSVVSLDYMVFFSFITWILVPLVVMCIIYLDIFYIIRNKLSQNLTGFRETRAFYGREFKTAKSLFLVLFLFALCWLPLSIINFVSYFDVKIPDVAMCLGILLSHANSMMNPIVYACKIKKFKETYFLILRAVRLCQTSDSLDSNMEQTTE

hA3AR [1] = target: T3, hA3AR (Homo sapiens, UniProt P0DMS8); type: cell-based; settings: at 10 μM
T3 sequence (P0DMS8 1-318): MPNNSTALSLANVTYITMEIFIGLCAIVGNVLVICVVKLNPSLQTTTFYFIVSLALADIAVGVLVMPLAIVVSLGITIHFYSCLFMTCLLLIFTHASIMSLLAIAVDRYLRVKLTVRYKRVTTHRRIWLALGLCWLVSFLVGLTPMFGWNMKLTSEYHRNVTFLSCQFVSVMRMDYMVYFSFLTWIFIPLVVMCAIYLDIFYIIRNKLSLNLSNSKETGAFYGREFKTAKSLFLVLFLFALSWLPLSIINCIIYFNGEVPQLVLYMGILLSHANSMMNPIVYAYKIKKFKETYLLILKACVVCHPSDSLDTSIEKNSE

hA3AR [2] = target: T3, hA3AR; test: Radioligand binding at hA3AR
hA1AR = target: T4, hA1AR (Homo sapiens, UniProt P30542); test: Radioligand binding at hA1AR
T4 sequence (P30542 1-326): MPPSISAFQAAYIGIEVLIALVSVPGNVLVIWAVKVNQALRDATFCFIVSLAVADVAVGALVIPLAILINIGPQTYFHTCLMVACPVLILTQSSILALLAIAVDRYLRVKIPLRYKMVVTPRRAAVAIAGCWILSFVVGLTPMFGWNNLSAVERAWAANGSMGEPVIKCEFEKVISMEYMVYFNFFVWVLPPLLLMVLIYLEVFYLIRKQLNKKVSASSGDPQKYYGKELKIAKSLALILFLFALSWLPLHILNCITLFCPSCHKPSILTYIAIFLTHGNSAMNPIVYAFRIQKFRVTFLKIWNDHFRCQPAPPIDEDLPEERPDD

hA2AAR = hA2AAR (Homo sapiens, UniProt P29274); test: Radioligand binding at hA2AAR
hA2AAR, sequence (P29274 whole entry): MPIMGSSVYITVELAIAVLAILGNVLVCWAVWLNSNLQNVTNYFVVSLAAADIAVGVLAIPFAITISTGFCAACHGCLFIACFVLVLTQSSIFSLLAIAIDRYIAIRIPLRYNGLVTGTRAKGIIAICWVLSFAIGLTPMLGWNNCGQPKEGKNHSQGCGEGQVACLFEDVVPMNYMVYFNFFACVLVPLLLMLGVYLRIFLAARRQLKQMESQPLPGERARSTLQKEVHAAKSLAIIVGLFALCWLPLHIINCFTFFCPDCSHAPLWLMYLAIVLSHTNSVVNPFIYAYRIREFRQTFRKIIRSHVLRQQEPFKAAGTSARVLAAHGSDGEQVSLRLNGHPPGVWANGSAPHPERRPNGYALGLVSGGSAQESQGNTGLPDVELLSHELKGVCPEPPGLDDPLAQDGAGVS

mA2AAR, sequence (Q60613 whole entry): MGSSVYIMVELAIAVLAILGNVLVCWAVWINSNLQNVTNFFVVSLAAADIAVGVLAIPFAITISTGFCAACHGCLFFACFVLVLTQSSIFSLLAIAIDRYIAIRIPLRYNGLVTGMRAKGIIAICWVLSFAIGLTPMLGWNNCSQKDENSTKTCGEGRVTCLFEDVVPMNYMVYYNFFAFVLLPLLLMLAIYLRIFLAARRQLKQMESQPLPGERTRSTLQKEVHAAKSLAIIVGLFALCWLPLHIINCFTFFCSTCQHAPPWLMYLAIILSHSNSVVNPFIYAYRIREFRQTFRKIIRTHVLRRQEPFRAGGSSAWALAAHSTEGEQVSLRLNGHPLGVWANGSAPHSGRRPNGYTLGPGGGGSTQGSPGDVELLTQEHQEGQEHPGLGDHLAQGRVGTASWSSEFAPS

SMILES: CNC(=O)[C@@]12C[C@@H]1[C@@H](n1cnc3c(NCc4cccc(I)c4)nc(Cl)nc31)[C@H](O)[C@@H]2O [Compound 4]
Ki (mA1AR): 7.32 ± 1.5 nM
Ki (mA2AAR): 5350 nM
Ki (mA3AR): 0.8 ± 0.14 nM

SMILES: CNC(=O)[C@@]12C[C@@H]1[C@@H](n1cnc3c(NCc4cccc(Cl)c4)nc(C#Cc4ccc(F)c(F)c4)nc31)[C@H](O)[C@@H]2O [Compound 31, (1S,2R,3S,4R,5S)-4-(6-(3-Chlorobenzylamino)-2-((3,4-difluorophenyl)ethynyl)-9H-purin-9-yl)-2,3-dihydroxy-N-methylbicyclo[3.1.0]hexane-1-carboxamide]
agonist type at the A3AR (hA3AR [1]): full agonist

Ki (hA3AR [2]; Affinity (Ki) hA3, [125I]I-AB-MECA, CHO cells, n = 3–5): ~0.6 nM
SMILES: CNC(=O)[C@@]12C[C@@H]1[C@@H](n1cnc3c(NC)nc(C#Cc4ccc(F)cc4)nc31)[C@H](O)[C@@H]2O [Compound 13, (1S,2R,3S,4R,5S)-4-(2-((4-Fluorophenyl)ethynyl)-6-(methylamino)-9H-purin-9-yl)-2,3-dihydroxy-N-methylbicyclo[3.1.0]hexane-1-carboxamide]

activity at A1 (hA1AR): inactive
activity at A2A (hA2AAR): inactive
SMILES: CNC(=O)[C@@]12C[C@@H]1[C@@H](n1cnc3c(NCc4cccc(Cl)c4)nc(C#Cc4ccc(-c5ccccc5)cc4)nc31)[C@H](O)[C@@H]2O [Compound 34, (1S,2R,3S,4R,5S)-4-(2-(Biphenyl-4-ylethynyl)-6-(3-chlorobenzylamino)-9H-purin-9-yl)-2,3-dihydroxy-N-methylbicyclo[3.1.0]hexane-1-carboxamide]

Ki (hA1AR): > 10000 nM
SMILES: CNC(=O)[C@@]12C[C@@H]1[C@@H](n1cnc3c(NCc4cccc(Cl)c4)nc(C#Cc4ccccc4)nc31)[C@H](O)[C@@H]2O [Compound 27, (1S,2R,3S,4R,5S)-4-(6-(3-Chlorobenzylamino)-2-(phenylethynyl)-9H-purin-9-yl)-2,3-dihydroxy-N-methylbicyclo[3.1.0]hexane-1-carboxamide]

inhibition at 10 µM (hA1AR; read-out: % inhibition of radioligand binding hA1, at 10 μM, n = 3): < 20%
inhibition at 10 µM (hA2AAR; read-out: % inhibition of radioligand binding hA2A, at 10 μM, n = 3): < 20%
SMILES: CNC(=O)[C@@]12C[C@@H]1[C@@H](n1cnc3c(NC)nc(C#Cc4ccccc4)nc31)[C@H](O)[C@@H]2O [Compound 9, (1S,2R,3S,4R,5S)-2,3-Dihydroxy-N-methyl-4-(6-(methylamino)-2-(phenylethynyl)-9H-purin-9-yl)bicyclo[3.1.0]hexane-1-carboxamide]

reduction of A3AR binding affinity compared to the H analogue 9 (hA3AR [2]): 12 fold
SMILES: CNC(=O)[C@@]12C[C@@H]1[C@@H](n1cnc3c(NC)nc(C#Cc4ccc(C(C)(C)C)cc4)nc31)[C@H](O)[C@@H]2O [Compound 22, (1S,2R,3S,4R,5S)-4-(2-((4-tert-Butylphenyl)ethynyl)-6-(methylamino)-9H-purin-9-yl)-2,3-dihydroxy-N-methylbicyclo[3.1.0]hexane-1-carboxamide]
